{
  "source": "PubChem BioAssay AID1259409",
  "about": "(Chemical Carcinogenesis Research Information System (CCRIS), 2018)",
  "origin": "cited, not measured here",
  "test_system": "rodent chemically induced tumor inhibition, incidence and multiplicity",
  "test": "CCRIS tumor inhibitor studies",
  "conditions": "Route [Inhibitor]: ORAL",
  "data": [
    {"smiles": "S=C=NCCc1ccccc1", "values": [
      {"measurement": "tumour outcome (control, treated, inhibition, significance)", "setting": "Carcinogen: N-NITROSOBIS(2-OXOPROPYL)AMINE [60599-38-4], Dose [Inhibitor]: 3 UMOL IN DIET FOR 49 WK BEGINNING 2 WK POST LAST CARCINOGEN DOSE (STUDY DURATION: 52 WK), Species: HAMSTER, Strain/Sex: SYRIAN/FEMALE, Target Tissue: Type of Lesion: LUNG: ADENOCARCINOMA, Dose [Carcinogen]: 20 MG/KG BW 1X/WK FOR 2 WK (STUDY DURATION: 52 WK), Promoter: NONE", "result": "14/25 (56.0%), 12/28 (42.9%), 23%, not significant"},
      {"measurement": "tumour outcome (control, treated, inhibition, significance)", "setting": "Carcinogen: N-NITROSOBIS(2-OXOPROPYL)AMINE [60599-38-4], Dose [Inhibitor]: 3 UMOL IN DIET FOR 49 WK BEGINNING 2 WK POST LAST CARCINOGEN DOSE (STUDY DURATION: 52 WK), Species: HAMSTER, Strain/Sex: SYRIAN/FEMALE, Target Tissue: Type of Lesion: LUNG: ADENOMA, Dose [Carcinogen]: 20 MG/KG BW 1X/WK FOR 2 WK (STUDY DURATION: 52 WK), Promoter: NONE", "result": "20/25 (88.0%), 26/28 (92.9%), -6%, not significant"},
      {"measurement": "tumour outcome (control, treated, inhibition, significance)", "setting": "Carcinogen: N-NITROSOBIS(2-OXOPROPYL)AMINE [60599-38-4], Dose [Inhibitor]: 3 UMOL IN DIET FOR 49 WK BEGINNING 2 WK POST LAST CARCINOGEN DOSE (STUDY DURATION: 52 WK), Species: HAMSTER, Strain/Sex: SYRIAN/FEMALE, Target Tissue: Type of Lesion: PANCREAS: ADENOCARCINOMA, Dose [Carcinogen]: 20 MG/KG BW 1X/WK FOR 2 WK (STUDY DURATION: 52 WK), Promoter: NONE", "result": "20/25 (80.0%), 22/28 (78.6%), 2%, not significant"},
      {"measurement": "tumour outcome (control, treated, inhibition, significance)", "setting": "Carcinogen: N-NITROSOBIS(2-OXOPROPYL)AMINE [60599-38-4], Dose [Inhibitor]: 6 UMOL IN DIET FOR 49 WK BEGINNING 2 WK POST LAST CARCINOGEN DOSE (STUDY DURATION: 52 WK), Species: HAMSTER, Strain/Sex: SYRIAN/FEMALE, Target Tissue: Type of Lesion: LIVER: HEPATOCELLULAR ADENOMA, Dose [Carcinogen]: 20 MG/KG BW 1X/WK FOR 2 WK (STUDY DURATION: 52 WK), Promoter: NONE", "result": "18/25 (72.0%), 16/28 (57.1%), 21%, not significant"},
      {"measurement": "tumour outcome (control, treated, inhibition, significance)", "setting": "Carcinogen: N-NITROSOBIS(2-OXOPROPYL)AMINE [60599-38-4], Dose [Inhibitor]: 6 UMOL IN DIET FOR 49 WK BEGINNING 2 WK POST LAST CARCINOGEN DOSE (STUDY DURATION: 52 WK), Species: HAMSTER, Strain/Sex: SYRIAN/FEMALE, Target Tissue: Type of Lesion: LUNG: ADENOCARCINOMA, Dose [Carcinogen]: 20 MG/KG BW 1X/WK FOR 2 WK (STUDY DURATION: 52 WK), Promoter: NONE", "result": "14/25 (56.0%), 11/28 (39.3%), 30%, not significant"},
      {"measurement": "tumour outcome (control, treated, inhibition, significance)", "setting": "Carcinogen: N-NITROSOBIS(2-OXOPROPYL)AMINE [60599-38-4], Dose [Inhibitor]: 6 UMOL IN DIET FOR 49 WK BEGINNING 2 WK POST LAST CARCINOGEN DOSE (STUDY DURATION: 52 WK), Species: HAMSTER, Strain/Sex: SYRIAN/FEMALE, Target Tissue: Type of Lesion: LUNG: ADENOMA, Dose [Carcinogen]: 20 MG/KG BW 1X/WK FOR 2 WK (STUDY DURATION: 52 WK), Promoter: NONE", "result": "20/25 (88.0%), 24/28 (85.7%), 3%, not significant"},
      {"measurement": "tumour outcome (control, treated, inhibition, significance)", "setting": "Carcinogen: N-NITROSOBIS(2-OXOPROPYL)AMINE [60599-38-4], Dose [Inhibitor]: 6 UMOL IN DIET FOR 49 WK BEGINNING 2 WK POST LAST CARCINOGEN DOSE (STUDY DURATION: 52 WK), Species: HAMSTER, Strain/Sex: SYRIAN/FEMALE, Target Tissue: Type of Lesion: PANCREAS: ADENOCARCINOMA, Dose [Carcinogen]: 20 MG/KG BW 1X/WK FOR 2 WK (STUDY DURATION: 52 WK), Promoter: NONE", "result": "20/25 (80.0%), 25/28 (89.3%), -12%, not significant"},
      {"measurement": "tumour outcome (control, treated, inhibition, significance)", "setting": "Carcinogen: N-NITROSOMETHYLBENZYLAMINE, 937-40-6, Dose [Inhibitor]: 0, 0.325 UMOL/G OF DIET FOR 25 WK BEGINNING 2 WK PRIOR TO CARCINOGEN TREATMENT (STUDY DURATION: 25 WK), Species: RAT, Strain/Sex: F344/MALE, Target Tissue: Type of Lesion: ESOPHAGUS: TUMORS, Dose [Carcinogen]: 0.5 MG/KG 1/WK FOR 15 WK, Promoter: NONE USED", "result": "100%, 100%, 0%, not significant"},
      {"measurement": "tumour outcome (control, treated, inhibition, significance)", "setting": "Carcinogen: N-NITROSOMETHYLBENZYLAMINE, 937-40-6, Dose [Inhibitor]: 0, 0.4 UMOL/G IN DIET FOR 25 WK BEGINNING 2 WK PRIOR TO CARCINOGEN TREATMENT (STUDY DURATION: 25 WK), Species: RAT, Strain/Sex: F344/MALE, Target Tissue: Type of Lesion: ESOPHAGUS: TUMOR, Dose [Carcinogen]: 0.5 MG/KG BW IN 20% DMSO 1/WK FOR 15 WK, Promoter: NONE USED", "result": "100%, 57%, 43%, not significant"},
      {"measurement": "tumour outcome (control, treated, inhibition, significance)", "setting": "Carcinogen: N-NITROSOMETHYLBENZYLAMINE, 937-40-6, Dose [Inhibitor]: 0, 0.75 UMOL/G OF DIET FOR 25 WK BEGINNING 2 WK PRIOR TO CARCINOGEN TREATMENT (STUDY DURATION: 25 WK), Species: RAT, Strain/Sex: F344/MALE, Target Tissue: Type of Lesion: ESOPHAGUS: TUMORS, Dose [Carcinogen]: 0.5 MG/KG 1/WK FOR 15 WK, Promoter: NONE USED", "result": "100%, 100%, 0%, not significant"},
      {"measurement": "tumour outcome (control, treated, inhibition, significance)", "setting": "Carcinogen: N-NITROSOMETHYLBENZYLAMINE, 937-40-6, Dose [Inhibitor]: 0, 1 UMOL/G IN DIET FOR 25 WK BEGINNING 2 WK PRIOR TO CARCINOGEN TREATMENT (STUDY DURATION: 25 WK), Species: RAT, Strain/Sex: F344/MALE, Target Tissue: Type of Lesion: ESOPHAGUS: TUMOR, Dose [Carcinogen]: 0.5 MG/KG BW IN 20% DMSO 1/WK FOR 15 WK, Promoter: NONE USED", "result": "100%, 40%, 60%, p<0.05"},
      {"measurement": "tumour outcome (control, treated, inhibition, significance)", "setting": "Carcinogen: N-NITROSOMETHYLBENZYLAMINE, 937-40-6, Dose [Inhibitor]: 0, 1.5 UMOL/G OF DIET FOR 25 WK BEGINNING 2 WK PRIOR TO CARCINOGEN TREATMENT (STUDY DURATION: 25 WK), Species: RAT, Strain/Sex: F344/MALE, Target Tissue: Type of Lesion: ESOPHAGUS: TUMORS, Dose [Carcinogen]: 0.5 MG/KG 1/WK FOR 15 WK, Promoter: NONE USED", "result": "100%, 60%, 40%, p<0.01"},
      {"measurement": "tumour outcome (control, treated, inhibition, significance)", "setting": "Carcinogen: N-NITROSOMETHYLBENZYLAMINE, 937-40-6, Dose [Inhibitor]: 0, 2.5 UMOL/G IN DIET FOR 25 WK BEGINNING 2 WK PRIOR TO CARCINOGEN TREATMENT (STUDY DURATION: 25 WK), Species: RAT, Strain/Sex: F344/MALE, Target Tissue: Type of Lesion: ESOPHAGUS: TUMOR, Dose [Carcinogen]: 0.5 MG/KG BW IN 20% DMSO 1/WK FOR 15 WK, Promoter: NONE USED", "result": "100%, 7%, 93%, p<0.05"},
      {"measurement": "tumour outcome (control, treated, inhibition, significance)", "setting": "Carcinogen: N-NITROSOMETHYLBENZYLAMINE, 937-40-6, Dose [Inhibitor]: 0, 3 UMOL/G OF DIET FOR 25 WK BEGINNING 2 WK PRIOR TO CARCINOGEN TREATMENT (STUDY DURATION: 25 WK), Species: RAT, Strain/Sex: F344/MALE, Target Tissue: Type of Lesion: ESOPHAGUS: TUMORS, Dose [Carcinogen]: 0.5 MG/KG 1/WK FOR 15 WK, Promoter: NONE USED", "result": "100%, 0%, 100%, p<0.01"},
      {"measurement": "tumour outcome (control, treated, inhibition, significance)", "setting": "Carcinogen: N-NITROSOMETHYLBENZYLAMINE, 937-40-6, Dose [Inhibitor]: 0, 500 PPM IN DIET FOR DURATION OF STUDY BEGINNING 1 WK POST CARCINOGEN TREATMENT (STUDY DURATION: 25 WK), Species: RAT, Strain/Sex: F344/MALE, Target Tissue: Type of Lesion: ESOPHAGUS: TUMOR, Dose [Carcinogen]: 1 MG/KG 3/WK FOR 5 WK, Promoter: NONE USED", "result": "15/15 (100%), 14/15 (93%), 7%, not significant"},
      {"measurement": "tumour outcome (control, treated, inhibition, significance)", "setting": "Carcinogen: N-NITROSOMETHYLBENZYLAMINE, 937-40-6, Dose [Inhibitor]: 0, 500 PPM IN DIET FOR DURATION OF STUDY BEGINNING 2 WK PRIOR TO CARCINOGEN TREATMENT (STUDY DURATION: 25 WK), Species: RAT, Strain/Sex: F344/MALE, Target Tissue: Type of Lesion: ESOPHAGUS: TUMOR, Dose [Carcinogen]: 1 MG/KG 3/WK FOR 5 WK, Promoter: NONE USED", "result": "15/15 (100%), 7/15 (47%), 53%, p<0.01"}
    ]}
  ]
}
